Reference: US5552411A, “Sulfonylquinolines as central nervous system and cardiovascular agents” (Warner-Lambert Company, priority 1995, dated 1996)

biological target: T1, Human Neuropeptide Y1 Receptors (Homo sapiens, UniProt P25929); experiment: Receptor binding: inhibition of [^125 I]Peptide YY binding to human neuropeptide Y1 receptors (SK-N-MC membranes); details: not given
T1 construct: 50 μL SK-N-MC preparation containing 50 μg/tube membrane protein; host or cells: SK-N-MC human neuroblastoma cells (membranes)
T1 sequence (P25929 1-384): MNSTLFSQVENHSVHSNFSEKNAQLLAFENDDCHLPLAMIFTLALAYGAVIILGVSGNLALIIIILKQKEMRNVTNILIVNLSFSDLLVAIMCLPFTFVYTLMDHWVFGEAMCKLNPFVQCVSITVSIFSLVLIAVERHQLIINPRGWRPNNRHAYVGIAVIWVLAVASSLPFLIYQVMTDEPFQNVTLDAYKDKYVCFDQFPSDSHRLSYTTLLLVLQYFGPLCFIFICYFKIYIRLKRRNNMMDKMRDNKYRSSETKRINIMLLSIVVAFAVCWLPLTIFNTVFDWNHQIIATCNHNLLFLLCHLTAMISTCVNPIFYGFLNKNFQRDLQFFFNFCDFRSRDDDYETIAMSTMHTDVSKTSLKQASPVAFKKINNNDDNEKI
Procedure: The compounds of Formula I are valuable neuropeptide Y1 antagonists. The compounds of Formula I were tested for their ability to bind to the neuropeptide Y1 receptor subtype as measured by their inhibition of [^125 I]Peptide YY to human NPY1 receptors.
Human neuroblastoma cells, SK-N-MC, obtained from American Type Culture Collection were grown in Dulbecco's modified Eagle medium (Gibco) containing 10% fetal bovine serum and 100 units per mL/100 μg/mL penicillin/streptomycin (Gibco). After cells were confluent, growth media was replaced with fresh media and cells were allowed to continue growing for an additional 24 hours. Cells were then harvested in a buffer consisting of the following: 25 mM Tris(hydroxymethyl)amino methane (Tris), pH 7.4, 6 mM MgCl2, 250 μg/mL bacitracin, 250 μg/mL aprotinin, 250 μg/mL leupeptin, 250 μg/mL 4-(2-aminoethyl)-benzenesulfonylfluoride hydrochloride (Peflabloc) (Pentapharm AG). Growth media was removed and cells were lifted from the flasks with Dulbecco's phosphate buffered saline (D-PBS) containing 0.02% ethylenediaminetetraacetic acid (EDTA). Cells were pelleted and homogenized using a polytron, and broken membranes were pelleted by centrifugation at 18,000 rpm for 10 minutes at 4° C. The pelleted membranes were resuspended in the above buffer and frozen at […].
D-PBS (Gibco) pH 7.4, containing 0.5 g/L bacitracin and […] bovine serum albumin (BSA), was used in the preparation of compound and radiolabel. Each assay tube consisted of the following: […] of compound or buffer, 100 μL[^125 I]-PYY (Peptide YY) (30 pM), and 50 μL SK-N-MC preparation containing 50 μg/tube membrane protein for a total volume of 250 μL/tube. Non-specific binding was defined by the addition of 300 nM final concentration of neuropeptide Y. After addition of all reagents, tubes were shaken while incubating for 60 minutes at room temperature. The assay was terminated by filtering through a Whatman GF/C filter previously saturated with 0.1% polyethylenimine in 10 mM Tris, pH 7.5 containing 0.1% BSA. Filters were punched from the filter mat, placed in tubes, and counted for 1 minute using a gamma counter. The Ki was determined using the Graph PAD data analysis software program.

Q: With Nc1cc(S(=O)(=O)c2ccc([N+](=O)[O-])cc2)c([N+](=O)[O-])c2cccnc12 [Example 8, 5-Nitro-6-(4-nitro-benzenesulfonyl)-quinolin-8-ylamine] as the compound, how does the Ki read?
A: 1000 nM

same assay, conditions: 30 pM [^125 I]-PYY, SK-N-MC membranes, 60 minutes, room temperature, pH 7.4; read-out: Inhibition of [^125 I]Peptide YY Binding to Human Neuropeptide Y1 Receptors Ki

Q: Which Ki does the source give for Nc1cc(S(=O)(=O)c2ccccc2C(F)(F)F)c([N+](=O)[O-])c2cccnc12 [Example 29, 5-Nitro-6-(2-trifluoromethyl-benzenesulfonyl)-quinolin-8-ylamine] here?
A: 84 nM

Q: With CC(C)c1cccc(C(C)C)c1S(=O)(=O)c1cc(N)c2ncccc2c1[N+](=O)[O-] [Example 28, 6-(2,6-Diisopropyl-benzenesulfonyl)-5-nitro-quinolin-8-ylamine] as the compound, how does the Ki read?
A: 48 nM

Q: Which Ki does the source give for Nc1cc(S(=O)(=O)c2cc(Cl)ccc2Cl)c([N+](=O)[O-])c2cccnc12 [Example 30, 6-(2,5-Dichloro-benzenesulfonyl)-5-nitro-quinolin-8-ylamine] here?
A: 283 nM

Q: For COc1cccc(S(=O)(=O)c2cc(N)c3ncccc3c2[N+](=O)[O-])c1 [Example 17, 6-(3-Methoxy-benzenesulfonyl)-5-nitro-quinolin-8-ylamine], which Ki is on record?
A: 311 nM

Q: With Nc1cc(S(=O)(=O)c2ccccc2F)c([N+](=O)[O-])c2cccnc12 [Example 27, 6-(2-Fluoro-benzenesulfonyl)-5-nitro-quinolin-8-ylamine] as the compound, how does the Ki read?
A: 58 nM

Q: Which Ki does the source give for CC(C)c1ccccc1S(=O)(=O)c1cc(N)c2ncccc2c1[N+](=O)[O-] [Example 19, 6-(2-Isopropyl-benzenesulfonyl)-5-nitro-quinolin-8-ylamine] here?
A: 48 nM

Q: With Nc1cc(S(=O)(=O)c2cccc3ccccc23)c([N+](=O)[O-])c2cccnc12 [Example 20, 6-(Naphthalene-1-sulfonyl)-5-nitro-quinolin-8-ylamine] as the compound, how does the Ki read?
A: 46 nM

Q: Which Ki does the source give for Nc1cc(S(=O)(=O)c2ccccc2)c([N+](=O)[O-])c2cccnc12 [Example 1, 6-Benzenesulfonyl-5-nitro-quinolin-8-ylamine] here?
A: 297 nM

Q: For Nc1cc(S(=O)(=O)c2ccc(F)cc2)c([N+](=O)[O-])c2cccnc12 [Example 16, 6-(4-Fluoro-benzenesulfonyl)-5-nitro-quinolin-8-ylamine], which Ki is on record?
A: 603 nM

Q: Which Ki does the source give for Nc1cc(S(=O)(=O)c2ccc3ccccc3c2)c([N+](=O)[O-])c2cccnc12 [Example 5, 6-(Naphthalene-2-sulfonyl)-5-nitro-quinolin-8-ylamine] here?
A: 1200 nM

Q: For Nc1cc(S(=O)(=O)c2ccc(O)cc2)c([N+](=O)[O-])c2cccnc12 [Example 10, 4-(8-Amino-5-nitro-quinoline-6-sulfonyl)-phenol], which Ki is on record?
A: 136 nM

Q: With Cc1ccc(S(=O)(=O)c2cc(N)c3ncccc3c2[N+](=O)[O-])cc1 [Example 4, 5-Nitro-6-(toluene-4-sulfonyl)-quinolin-8-ylamine] as the compound, how does the Ki read?
A: 594 nM

Q: With Cc1ccccc1S(=O)(=O)c1cc(N)c2ncccc2c1[N+](=O)[O-] [Example 12, 5-Nitro-6-(toluene-2-sulfonyl)-quinolin-8-ylamine] as the compound, how does the Ki read?
A: 119 nM

Q: With Nc1cc(S(=O)(=O)c2ccc(Cl)cc2)c([N+](=O)[O-])c2cccnc12 [Example 2, 6-(4-Chloro-benzenesulfonyl)-5-nitro-quinolin-8-ylamine] as the compound, how does the Ki read?
A: 1750 nM

Q: With CCc1ccccc1S(=O)(=O)c1cc(N)c2ncccc2c1[N+](=O)[O-] [Example 18, 6-(2-Ethyl-benzenesulfonyl)-5-nitro-quinolin-8-ylamine] as the compound, how does the Ki read?
A: 129 nM

Q: Which Ki does the source give for Cc1ccc(S(=O)(=O)c2cc(N)c3ncccc3c2[N+](=O)[O-])c(C)c1 [Example 22, 6-(2,4-Dimethyl-benzenesulfonyl)-5-nitro-quinolin-8-ylamine] here?
A: 222 nM

Q: With COc1ccc(S(=O)(=O)c2cc(N)c3ncccc3c2[N+](=O)[O-])cc1 [Example 3, 6-(4-Methoxy-benzenesulfonyl)-5-nitro-quinolin-8-ylamine] as the compound, how does the Ki read?
A: 1140 nM

Q: With CC(C)(C)c1ccc(S(=O)(=O)c2cc(N)c3ncccc3c2[N+](=O)[O-])cc1 [Example 7, 6-(4-tert-Butyl-benzenesulfonyl)-5-nitro-quinolin-8-ylamine] as the compound, how does the Ki read?
A: 3200 nM

Q: For Cc1cccc(S(=O)(=O)c2cc(N)c3ncccc3c2[N+](=O)[O-])c1 [Example 9, 5-Nitro-6-(toluene-3-sulfonyl)-quinolin-8-ylamine], which Ki is on record?
A: 373 nM

Q: With Nc1cc(S(=O)(=O)c2ccccc2Br)c([N+](=O)[O-])c2cccnc12 [Example 24, 6-(2-Bromo-benzenesulfonyl)-5-nitro-quinolin-8-ylamine] as the compound, how does the Ki read?
A: 234 nM

Q: With Cc1cccc(C)c1S(=O)(=O)c1cc(N)c2ncccc2c1[N+](=O)[O-] [Example 14, 6-(2,6-Dimethyl-benzenesulfonyl)-5-nitro-quinolin-8-ylamine] as the compound, how does the Ki read?
A: 295 nM

Q: For Cc1ccc(C)c(S(=O)(=O)c2cc(N)c3ncccc3c2[N+](=O)[O-])c1 [Example 6, 6-(2,5-Dimethyl-benzenesulfonyl)-5-nitro-quinolin-8-ylamine], which Ki is on record?
A: 148 nM

Q: For CC(=O)Nc1ccccc1S(=O)(=O)c1cc(N)c2ncccc2c1[N+](=O)[O-] [Example 25, N-[2-(8-Amino-5-nitro-quinoline-6-sulfonyl)-phenyl]-acetamide], which Ki is on record?
A: 590 nM

Q: For N#Cc1ccc(S(=O)(=O)c2cc(N)c3ncccc3c2[N+](=O)[O-])cc1 [Example 11, 4-(8-Amino-5-nitro-quinoline-6-sulfonyl)-benzonitrile], which Ki is on record?
A: 854 nM

Q: With Nc1cc(S(=O)(=O)c2c(Cl)cccc2Cl)c([N+](=O)[O-])c2cccnc12 [Example 23, 6-(2,6-Dichloro-benzenesulfonyl)-5-nitro-quinolin-8-ylamine] as the compound, how does the Ki read?
A: 273 nM

Q: For CC(C)(C)c1ccccc1S(=O)(=O)c1cc(N)c2ncccc2c1[N+](=O)[O-] [Example 31, 6-(2-tert-Butyl-benzenesulfonyl)-5-nitro-quinolin-8-ylamine], which Ki is on record?
A: 1400 nM

Q: For COc1ccccc1S(=O)(=O)c1cc(N)c2ncccc2c1[N+](=O)[O-] [Example 21, 6-(2-Methoxy-benzenesulfonyl)-5-nitro-quinolin-8-ylamine], which Ki is on record?
A: 490 nM

Q: For Nc1cc(S(=O)(=O)c2ccccc2Cl)c([N+](=O)[O-])c2cccnc12 [Example 13, 6-(2-Chloro-benzenesulfonyl)-5-nitro-quinolin-8-ylamine], which Ki is on record?
A: 93 nM

Q: With Nc1cc(S(=O)(=O)c2cccc(Cl)c2Cl)c([N+](=O)[O-])c2cccnc12 [Example 26, 6-(2,3-Dichloro-benzenesulfonyl)-5-nitro-quinolin-8-ylamine] as the compound, how does the Ki read?
A: 93 nM

Q: Which Ki does the source give for Nc1cc(S(=O)(=O)c2cccc(Cl)c2)c([N+](=O)[O-])c2cccnc12 [Example 15, 6-(3-Chloro-benzenesulfonyl)-5-nitro-quinolin-8-ylamine] here?
A: 892 nM

test system: rats; experiment: not given; details: administration into the central nervous system; cited from earlier work

Q: With “NPY: Neuropeptide Y (NPY), involved in the control of feeding in mammals; agonist in the cAMP assay” as the compound, how does the effect on feeding read?
A: dramatic increase in feeding
